This is an account of results in patent US20240409662A1, “ANTIBODY MASKS AND USES THEREOF” (Vibrant Pharma Limited, priority 2021, published 2024).

Usually Kd stands for a measure of binding affinity in units of concentration.

“Also recorded” adds a separate entry of the source. No end group written: not given here.

First the molecules themselves.
B1: L4-G3A (bispecific antibody)
heavy: QDANEEGSGSPLGLGSGSEVKLLESGGGLVQPKGSLKLSCAASGFTFNTYAMNWVRQAPGKGLEWVARIRSKYNNYATYYADSVKDRFTISRDDSQSILYLQMNNLKTEDTAMYYCVRHGNFGNSYVSWFAYWGQGTLVTVSS
light: QAVVTQESALTTSPGETVTLTCRSSTGAVTTSNYANWVQEKPDHLFTGLIGGTNKRAPGVPARFSGSLIGDKAALTITGAQTEDEAIYFCALWYSNLWVFGGGTKVEIK
chain: EVQLVESGGGFVQAGESLTLSCTSSTLTFTPYRMAWYRQAPGKQRDLVADISSGDGRTTNYADFAKGRFTISRDNIKNTVFLRMTNLKPEDTAVYYCNTFVSFVGIARSWGQGTQVTVSSESKYGPPCPPCPAPEAAGGPSVFLFPPKPKDTLMISRTPEVTCVVVDVSQEDPEVQFNWYVDGVEVHNAKTKPREEQFNSTYRVVSVLTVLHQDWLNGKEYKCKVSNKGLPSSIEKTISKAKGQPREPQVCTLPPSQEEMTKNQVSLSCAVKGFYPSDIAVEWESNGQPENNYKTTPPVLDSDGSFFLVSRLTVDKSRWQEGNVFSCSVMHEALHNRFTQKSLSLSL
B2: MMP9-digested L4-D2E (bispecific antibody, not shown: small tags and cut ends)
heavy: EVKLLESGGGLVQPKGSLKLSCAASGFTFNTYAMNWVRQAPGKGLEWVARIRSKYNNYATYYADSVKDRFTISRDDSQSILYLQMNNLKTEDTAMYYCVRHGNFGNSYVSWFAYWGQGTLVTVSS
light: B1 light
chain: B1 chain
B3: MMP9-digested L5-D2E (bispecific antibody, not shown: small tags and cut ends)
heavy: B2 heavy
light: B1 light
chain: B1 chain
B4: L6-D2E (bispecific antibody)
heavy: QEGNEESSGGGSPLGLSSGGGSEVKLLESGGGLVQPKGSLKLSCAASGFTFNTYAMNWVRQAPGKGLEWVARIRSKYNNYATYYADSVKDRFTISRDDSQSILYLQMNNLKTEDTAMYYCVRHGNFGNSYVSWFAYWGQGTLVTVSS
light: B1 light
chain: B1 chain
B5: L5-D2E (bispecific antibody)
heavy: QEGNEESSGGSPLGLSSGGSEVKLLESGGGLVQPKGSLKLSCAASGFTFNTYAMNWVRQAPGKGLEWVARIRSKYNNYATYYADSVKDRFTISRDDSQSILYLQMNNLKTEDTAMYYCVRHGNFGNSYVSWFAYWGQGTLVTVSS
light: B1 light
chain: B1 chain
B6: L7-D2G (bispecific antibody)
heavy: QGGNEESSGGSGSPLGLSSGGSGSEVKLLESGGGLVQPKGSLKLSCAASGFTFNTYAMNWVRQAPGKGLEWVARIRSKYNNYATYYADSVKDRFTISRDDSQSILYLQMNNLKTEDTAMYYCVRHGNFGNSYVSWFAYWGQGTLVTVSS
light: B1 light
chain: B1 chain

In one test the target is CD3 on human PBMC (human, UniProt P07766 23-207). The test can be described thus: cell-based or functional assay.
Sequence of CD3 on human PBMC (P07766 23-207): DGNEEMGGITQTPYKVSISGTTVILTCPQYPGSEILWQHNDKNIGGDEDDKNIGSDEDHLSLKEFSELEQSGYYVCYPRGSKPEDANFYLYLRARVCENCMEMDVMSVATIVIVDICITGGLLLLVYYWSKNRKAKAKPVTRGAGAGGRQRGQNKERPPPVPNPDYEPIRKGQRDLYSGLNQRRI
Conditions: not given
Take B1: the “Digested vs. masked (ratio of killing EC50)” value was found to be 144 fold and the “EC50 of M-TCE-induced killing of HT29 cells in the presence of human PBMC” value (shortened to “EC50 of M-TCE-induced killing … of human PBMC”) stood at 1.72 nM.

For B2, the “EC50 of M-TCE-induced killing … of human PBMC” value turned out to be 0.011 nM.

On to B3, for which the “EC50 of M-TCE-induced killing … of human PBMC” value is 0.013 nM.

B4: the “Digested vs. masked (ratio of killing EC50)” value amounted to 32 fold and the “EC50 of M-TCE-induced killing … of human PBMC” value is 0.317 nM.

In the case of B5, the “Digested vs. masked (ratio of killing EC50)” value was 32 fold and the “EC50 of M-TCE-induced killing … of human PBMC” value is 0.418 nM.

Turning to B6, the “Digested vs. masked (ratio of killing EC50)” value is 9 fold and the “EC50 of M-TCE-induced killing … of human PBMC” value was 0.096 nM.

For a further test, the target named is SP34. The test can be described thus: BLI affinity of biotinylated N-terminal CD3ε peptides (on SA biosensor) to SP34 as analyte. In kind it is binding. To be noted: peptide immobilized. The text has this:
Bio-Layer Interferometry (BLI) technique was employed for the measurement of protein-protein interactions in this study. A Octet Red96 system and Streptavidin (SA) or AHC biosensors (ForteBio, Fremont) were utilized.
To measure the binding of SP34 to CD3ε peptides, the peptides were immobilized on the SA biosensor through SA-biotin interaction according the manufacturer's instruction. After running PBS with 0.01% Tween-20 buffer to stabilize baselines, the biosensors were dipped into solid black 96-well plates (Greiner Bio-One, Cat. #65520, Monroe, North Carolina, USA) containing SP34 in indicated concentrations. Association and dissociation were measured accordingly, and binding kinetics were calculated using ForteBio's Data Analysis 12.0 software.
BLI technology was employed to measure the affinity of the six peptides to SP34 with a ForteBio Red96. These peptides were immobilized on the SA Biosensor and their affinities were measured using SP34 as the analyte. The binding sensorgrams indicate that SP34 binds to all six peptides with very similar profiles (FIG. 1C). The affinities of the bindings were determined as between 1-4 nM (Table 1), very similar to that of CD3δε/SP34 binding. […] It is further hypothesized that a N-terminal CD3ε peptide […] can bind to SP34 as well.
Turning to “CD3ε-p6: N-terminal human CD3ε peptide with C-terminal GGGGS linker, biotinylated (QDGNEEMGGITQTPYKVSISGGGGS; not fully specified (C-terminus); also: biotinylated)”, the affinity, expressed as Kd, was 3.5 nM; the ka was determined as 46000 M⁻¹ s⁻¹; the kd is 0.00016 s⁻¹.

Consider “CD3ε-p5: N-terminal human CD3ε peptide with C-terminal GGGGS linker, biotinylated (QDGNEEMGGITQTPYKVGGGGS; not fully specified (C-terminus); also: biotinylated)”, for which the Kd came to 1.8 nM, the ka came to 54000 M⁻¹ s⁻¹ and the kd worked out at 9.8e-05 s⁻¹.

In the case of “CD3ε-p3: N-terminal human CD3ε peptide with C-terminal GGGGS linker, biotinylated (QDGNEEMGGITGGGGS; not fully specified (C-terminus); also: biotinylated)”, binding was characterised by a dissociation constant (Kd) of 2 nM, the ka is 56000 M⁻¹ s⁻¹ and the kd amounted to 0.00011 s⁻¹.

In turn, “CD3ε-p2: N-terminal human CD3ε peptide with C-terminal GGGGS linker, biotinylated (QDGNEEMGGGGGS; not fully specified (C-terminus); also: biotinylated)” showed a Kd of 3.6 nM, a ka of 65000 M⁻¹ s⁻¹ and a kd of 0.00024 s⁻¹.

As for “CD3ε-p7: N-terminal human CD3ε peptide with C-terminal GGGGS linker, biotinylated (QDGNEEMGGITQTPYKVSISGTTGGGGS; not fully specified (C-terminus); also: biotinylated, site not given here)”, the Kd was 1.3 nM, the ka is 100000 M⁻¹ s⁻¹ and the kd came to 0.00013 s⁻¹.

The subject of a further test is SP34. The test can be described thus: ELISA of SP34 binding to coated CD3ε1-27-Fc fusion proteins. To be noted: FIG. 2A. The method, then:
Examination of binding of SP34 to CD3ε1-27-Fc fusion proteins was conducted by ELISA. 100 μL of 2 μg/mL fusion protein was coated on 96 well microtiter plate (Nunc) at room temperature (RT) overnight. After blocking the wells with 3% milk-PBS (3% non-fat milk in 137 mM NaCl, 2.7 mM KCl, 10 mM Na2HPO4 1.8 mM KH2PO4) at RT for 1 hr and 6 washes with 0.05% PBST (0.05% Tween-20 in PBS), SP34 (5 μg/mL, 50 μL/well) was added to the wells as the first antibody and allowed for incubation at 37° C. for 1 hr. The wells were washed for 6 times with PBST after the incubation, and the second antibody horseradish peroxidase (HRP) labeled anti-Kappa light chain (Sigma, 1:6,000 dilution, 50 μL/well) was added and allowed for incubation at RT for 50 min. After 6 washes with PBST, 3,3′, 5,5′-Tetramethylbenzidine (TMB) was added to develop color, and 1M HCl was then added to stop the reaction. ELISA titer was read with a microtiter plate reader (Thermo Fisher) at 450 nm wavelength.
On to “D2E: D2E mutant of the CD3ε1-27-Fc fusion protein”, for which the “binding of SP34 to fusion protein” value is on record as “significant binding; also recorded: maintained binding”.

As for “D2G: D2G mutant of the CD3ε1-27-Fc fusion protein”, the “binding of SP34 to fusion protein” value is reported as “significant binding; also recorded: maintained binding”.

Regarding “D2N: D2N mutant of the CD3ε1-27-Fc fusion protein”, the “binding of SP34 to fusion protein” value is listed as “significant binding; also recorded: maintained binding”.

Consider “D2C: D2C mutant of the CD3ε1-27-Fc fusion protein”, for which the “binding of SP34 to fusion protein” value was “significant binding; also recorded: maintained binding”.

As to “G3A: G3A mutant of the CD3ε1-27-Fc fusion protein”, the “binding of SP34 to fusion protein” value was “significant binding; also recorded: maintained binding”.
